Data as given in patent US11130768B2, “Bicyclic pyrazole derivatives” (Bayer Animal Health GMBH, priority 2017, dated 2021).

Tests used:
Haemonchus contortus = conditions: 120 h, read-out: activity (larval mortality)
Procedure: Solvent: dimethyl sulfoxide
Approximately 40 larvae of the red stomach worm (Haemonchus contortus) are transferred into a test tube containing compound solution.
After 5 days the percentage of larval mortality is recorded. 100% efficacy means all larvae are killed, 0% efficacy means no larvae are killed.

[1] = test system: Dirofilaria immitis microfilariae; test: In Vitro Assay 3: Dirofilaria immitis microfilariae (DIROIM L1), motility; conditions: 72 h, read-out: EC50 (reduction of motility)
C. elegans Slo-1a = C. elegans Slo-1a (Caenorhabditis elegans, UniProt Q95V25)
Procedure: In Vitro Assay 1: C. elegans Slo-1a—Action at a Recombinant C. elegans Cell Line
Generation of a Stable C. elegans CHO Cell Line
A CHO cell line was obtained from ATCC, code ATCC CRL-9096. For transfection with plasmid DNA to express C. elegans Slo-1a (accession number AAL28102) CHO cells were passaged to 40% confluence before adding the transfection solution to the cell culture. The transfection solution included 300 μL OptiMEM (Life Technologies, Nr.: 31985), 2 μL (=6 μg) of plasmid DNA containing the C. elegans Slo 1a gene and 9 μL FugeneHD (Promega, Nr.: E2311), and was added to the cells prior to incubation for 48 hours at 37° C., 5% CO2. The transfection medium was exchanged for the selection medium which contains additional G418 (2 mg/ml, Invitrogen, Nr.: 10131) and the cells were seeded into 384 well plates (300 cells/well). After a few weeks, the remaining surviving cells were tested with a voltage sensitive dye (Membrane Potential Assay Kit, Molecular Devices Nr.: R8034) for K+ channel expression. Positive cell clones were purified by the limited dilution technique. For this the clone with the highest and most robust signal in the voltage sensitive dye assay was further subcloned (incubated) in 384 well plates (0.7 cells/well) in order to obtain clonal purity. This generated a final stable CHO cell line expressing the C. elegans Slo-1a.
Cells were cultured at 37° C. and 5% CO2 in MEMalpha with Gutamax I (Invitrogen, Nr.: 32571), supplemented with 10% (v/v) heat inactivated fetal bovine serum (Invitrogen, Nr.: 10500), G418 (1 mg/ml, Invitrogen, Nr.: 10131). Cells were detached using Accutase (Sigma, Nr.: A6964).
Membrane Potential Measurements
Laboratory compound testing was performed on 384-well microtiter plates (MTPs, Greiner, Nr.: 781092). 8000 cells/well were plated onto 384-well MTPs and cultured for 20 to 24 hours at 37° C. and 5% CO2. After removal of the cell culture medium, the cells were washed once with tyrode (150 mM NaCl, 0.3 mM KCl, 2 mM CaCl2, 1 mM MgCl2, 0.8 mM NaH2PO4, 5 mM Glucose, 28 mM Hepes, pH 7.4) and then loaded with the voltage sensitive dye of the Membrane Potential Assay Kit diluted in tyrode for 1 h at room temperature.
After starting the measurement of fluorescence using a FLIPR Tetra (Molecular Devices, Exc. 510-545 nm, Emm. 565-625 nm), test compounds were added followed by the addition of KCl tyrode (final assay concentration: 70 mM KCl, 2 mM CaCl2, 1 mM MgCl2, 0.8 mM NaH2PO4, 5 mM Glucose, 28 mM Hepes, pH 7.4, including the voltage sensitive dye). The measurement was completed after 7 minutes.
The data were evaluated by using the ActivityBase XLfit software (IDBS) for curve fitting and calculation of the half-maximal effective concentration (EC50) and are reported as negative decadic logarithm (pE50).

[2] = test system: Nippostrongylus brasiliensis; test: In Vitro Assay 2: Nippostrongylus brasiliensis (NIPOBR), acetylcholine esterase readout; conditions: adult worms, read-out: activity (reduction of AChE compared to negative control); for inhibition at 1 µg/mL: 1 μg/ml (1 ppm); for inhibition at 10 µg/mL: 10 μg/ml (10 ppm)
Procedure: In Vitro Assay 2: Nippostrongylus brasiliensis (NIPOBR)
Adult Nippostrongylus brasiliensis were washed with saline buffer containing 100 U/ml penicillin, 0.1 mg/ml streptomycin and 2.5 μg/ml amphotericin B. Test compounds were dissolved in DMSO and worms were incubated in medium in a final concentration of 10 μg/ml (10 ppm) respectively 1 μg/ml (1 ppm). An aliquot of the medium was used to determine the acetylcholine esterase activity in comparison to a negative control. The principle of measuring acetylcholine esterase as readout for anthelmintic activity was described in Rapson et al (1986) and Rapson et al (1987).

Cooperia curticei = conditions: 120 h, read-out: activity (larval mortality)
Procedure: In Vitro Assay 6: Cooperia curticei (COOPCU L3)
Solvent: dimethyl sulfoxide
Approximately 40 nematode larvae (Cooperia curticei) are transferred into a test tube containing the compound solution.
After 5 days percentage of larval mortality is recorded. 100% efficacy means all larvae are killed; 0% efficacy means no larvae are killed.

C. elegans Slo-1a, sequence (Q95V25 whole entry): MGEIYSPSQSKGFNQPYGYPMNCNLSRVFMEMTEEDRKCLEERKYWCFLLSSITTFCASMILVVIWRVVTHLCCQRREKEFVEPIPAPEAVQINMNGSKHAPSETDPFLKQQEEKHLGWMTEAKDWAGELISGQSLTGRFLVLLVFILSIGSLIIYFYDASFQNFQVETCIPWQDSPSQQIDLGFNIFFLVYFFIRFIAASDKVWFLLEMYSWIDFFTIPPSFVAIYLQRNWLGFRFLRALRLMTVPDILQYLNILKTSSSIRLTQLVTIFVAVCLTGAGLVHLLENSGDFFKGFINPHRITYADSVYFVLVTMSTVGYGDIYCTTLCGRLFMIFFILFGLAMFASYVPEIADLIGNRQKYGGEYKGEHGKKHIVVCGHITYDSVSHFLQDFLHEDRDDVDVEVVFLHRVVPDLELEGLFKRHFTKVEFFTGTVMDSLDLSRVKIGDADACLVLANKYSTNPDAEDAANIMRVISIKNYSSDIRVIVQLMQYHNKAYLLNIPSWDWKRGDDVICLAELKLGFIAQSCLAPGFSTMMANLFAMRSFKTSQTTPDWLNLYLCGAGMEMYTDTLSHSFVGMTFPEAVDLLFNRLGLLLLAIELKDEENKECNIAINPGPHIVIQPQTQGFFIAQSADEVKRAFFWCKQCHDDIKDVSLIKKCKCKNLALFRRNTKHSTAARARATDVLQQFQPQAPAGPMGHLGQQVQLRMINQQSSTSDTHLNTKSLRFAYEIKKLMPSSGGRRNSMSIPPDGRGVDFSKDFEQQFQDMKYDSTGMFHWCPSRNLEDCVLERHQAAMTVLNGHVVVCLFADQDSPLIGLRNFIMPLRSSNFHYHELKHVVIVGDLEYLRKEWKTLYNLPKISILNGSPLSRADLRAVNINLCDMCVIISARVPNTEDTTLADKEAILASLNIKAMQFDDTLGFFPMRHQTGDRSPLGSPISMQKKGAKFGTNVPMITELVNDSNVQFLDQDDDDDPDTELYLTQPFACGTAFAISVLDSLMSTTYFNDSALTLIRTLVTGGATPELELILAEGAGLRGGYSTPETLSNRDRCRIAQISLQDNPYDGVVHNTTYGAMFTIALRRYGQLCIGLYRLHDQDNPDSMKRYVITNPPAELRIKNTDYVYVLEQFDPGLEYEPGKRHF

| SMILES | mortality at 20 ppm (Haemonchus contortus) [%] | EC50 [1] [µg/mL] | EC50 (C. elegans Slo-1a) [nM] | inhibition at 1 µg/mL [2] [%] | inhibition at 10 µg/mL [2] [%] | mortality at 20 ppm (Cooperia curticei) [%] |
| --- | --- | --- | --- | --- | --- | --- |
| Cc1nn2c(C(C)C)c(C(=O)N[C@H]3CCOc4ccccc43)sc2c1-c1cc(Cl)cc(Cl)c1 [Example 1, 7-(3,5-dichlorophenyl)-N-[(4S)-3,4-dihydro-2H-chromen-4-yl]-3-isopropyl-6-methylpyrazolo[5,1-b][1,3]thiazole-2-carboxamide] | 90 | < 0.1 | 3.16 to 31.6 | > 80 | > 80 | – |
| Cc1nn2c(C(C)C)c(C(=O)N[C@H]3CCOc4ccccc43)sc2c1-c1cccc(Cl)c1Cl [Example 2, 7-(2,3-dichlorophenyl)-N-[(4S)-3,4-dihydro-2H-chromen-4-yl]-6-methyl-3-(propan-2-yl)pyrazolo[5,1-b][1,3]thiazole-2-carboxamide] | – | < 0.1 | < 3.16 | – | > 80 | 90 |
| Cc1nn2c(C(C)C)c(C(=O)N[C@H]3CCOc4ccccc43)sc2c1-c1cccc(C(F)(F)F)c1F [Example 3, 7-[2-fluoro-3-(trifluoromethyl)phenyl]-N-[(4S)-3,4-dihydro-2H-chromen-4-yl]-6-methyl-3-(propan-2-yl)pyrazolo[5,1-b][1,3]thiazole-2-carboxamide] | 90 | < 0.1 | < 3.16 | – | > 80 | 90 |
| Cc1nn2c(C(C)C)c(C(=O)N[C@H]3CCOc4ccccc43)sc2c1-c1cccc(OC(F)(F)F)c1F [Example 4, N-[(4S)-3,4-dihydro-2H-chromen-4-yl]-7-[2-fluoro-3-(trifluoromethoxy)phenyl]-3-isopropyl-6-methylpyrazolo[5,1-b][1,3]thiazole-2-carboxamide] | 80 | < 0.1 | < 3.16 | – | > 80 | 80 |
| Cc1nn2c(C(C)C)c(C(=O)N[C@H]3CCOc4ccccc43)sc2c1-c1cc(Cl)c(F)c(Cl)c1 [Example 5, 7-(3,5-dichloro-4-fluorophenyl)-N-[(4S)-3,4-dihydro-2H-chromen-4-yl]-3-isopropyl-6-methylpyrazolo[5,1-b][1,3]thiazole-2-carboxamide] | – | < 0.1 | < 3.16 | > 80 | > 80 | 90 |
| Cc1nn2c(C(C)C)c(C(=O)N[C@H]3CCOc4ccccc43)sc2c1-c1ccc(F)c(N(C)C)c1F [Example 6, N-[(4S)-3,4-dihydro-2H-chromen-4-yl]-7-[3-(dimethylamino)-2,4-difluorophenyl]-6-methyl-3-(propan-2-yl)pyrazolo[5,1-b][1,3]thiazole-2-carboxamide] | – | < 0.1 | < 3.16 | > 80 | > 80 | 90 |
| Cc1nn2c(C(C)C)c(C(=O)N[C@H]3CCOc4ccccc43)sc2c1-c1ccc(Cl)c(Cl)c1 [Example 7, 7-(3,4-dichlorophenyl)-N-[(4S)-3,4-dihydro-2H-chromen-4-yl]-6-methyl-3-(propan-2-yl)pyrazolo[5,1-b][1,3]thiazole-2-carboxamide] | – | < 0.1 | 3.16 to 31.6 | – | > 80 | – |
| Cc1nn2c(C(C)C)c(C(=O)N[C@H]3CCOc4ccccc43)sc2c1-c1ccc(F)c(F)c1 [Example 8, 7-(3,4-difluorophenyl)-N-[(4S)-3,4-dihydro-2H-chromen-4-yl]-6-methyl-3-(propan-2-yl)pyrazolo[5,1-b][1,3]thiazole-2-carboxamide] | – | < 0.1 | 3.16 to 31.6 | – | – | – |
| Cc1nn2c(C(C)C)c(C(=O)N[C@H]3CCOc4ccccc43)sc2c1-c1ccc(F)c(F)c1F [Example 9] | – | < 0.1 | 3.16 to 31.6 | – | – | 90 |
| Cc1nn2c(C(C)C)c(C(=O)N[C@H]3CCOc4ccccc43)sc2c1-c1c(Cl)cccc1Cl [Example 10, 7-(2,6-dichlorophenyl)-N-[(4S)-3,4-dihydro-2H-chromen-4-yl]-6-methyl-3-(propan-2-yl)pyrazolo[5,1-b][1,3]thiazole-2-carboxamide] | – | < 0.1 | < 3.16 | – | – | – |
| Cc1nn2c(C(C)C)c(C(=O)N[C@H]3CCOc4ccccc43)sc2c1-c1cccc(C(F)(F)F)c1Cl [Example 11, 7-[2-chloro-3-(trifluoromethyl)phenyl]-N-[(4S)-3,4-dihydro-2H-chromen-4-yl]-6-methyl-3-(propan-2-yl)pyrazolo[5,1-b][1,3]thiazole-2-carboxamide] | 90 | < 0.1 | < 3.16 | – | – | 100 |
| Cc1nn2c(C(C)C)c(C(=O)N[C@H]3CCOc4ccccc43)sc2c1-c1cc(Cl)cc(Cl)c1Cl [Example 12, N-[(4S)-3,4-dihydro-2H-chromen-4-yl]-6-methyl-3-(propan-2-yl)-7-(2,3,5-trichlorophenyl)pyrazolo[5,1-b][1,3]thiazole-2-carboxamide] | 80 | < 0.1 | < 3.16 | – | – | 100 |
| Cc1nn2c(C(C)C)c(C(=O)N[C@H]3CCOc4ccccc43)sc2c1-c1cccc(N(C)C)c1F [Example 13, N-[(4S)-3,4-dihydro-2H-chromen-4-yl]-7-[3-(dimethylamino)-2-fluorophenyl]-6-methyl-3-(propan-2-yl)pyrazolo[5,1-b][1,3]thiazole-2-carboxamide] | – | < 0.1 | < 3.16 | > 80 | – | 90 |
| Cc1nn2c(C(C)C)c(C(=O)N[C@H]3CCc4ccccc43)sc2c1-c1cc(Cl)c(F)c(Cl)c1 [Example 14, 7-(3,5-dichloro-4-fluorophenyl)-N-[(1S)-2,3-dihydro-1H-inden-1-yl]-6-methyl-3-(propan-2-yl)pyrazolo[5,1-b][1,3]thiazole-2-carboxamide] | – | < 0.1 | 3.16 to 31.6 | > 80 | > 80 | – |
| Cc1nn2c(C(C)C)c(C(=O)N[C@H]3CCc4ccccc43)sc2c1-c1cccc(Cl)c1Cl [Example 15, 7-(2,3-dichlorophenyl)-N-[(1S)-2,3-dihydro-1H-inden-1-yl]-6-methyl-3-(propan-2-yl)pyrazolo[5,1-b][1,3]thiazole-2-carboxamide] | – | < 0.1 | < 3.16 | – | – | – |
